Measured values: patent US20020164721A1, “Design of a polyepitopic construct for the induction of HLA-A2.1 restricted HIV 1 specific CTL responses using HHD mice” (priority 1999, published 2002)
Several values for one entry are separate records, joined by “and”; a condition that tells them apart may be missing. Identical values can stand only once. Entries after “also recorded” stand apart in the source; their conditions may differ. Like-named read-outs stand apart in the source and are kept apart here.

Assays:
HLA-A2.1 molecules [1] = molecular target: T1, HLA-A2.1 molecules (Homo sapiens, UniProt P04439, D140Y/D185E/D98H/E176V/E277Q/G131W/G231S/I119V/I121R/I166T/I218V/L300P/L318F/N151K/N90K/P208A/P217A/Q86G/Q94H/R138H/R169H/T345S); assay type: binding; details: wild-type HIV 1 peptides; T2 cells, 37° C., brefeldine A
T1 construct: Using TAP-deficient, HLA-A2.1^+ T2 cells, we evaluated these parameters in an immunofluorescence assay; endogenous in cells; host or cells: T2 cells (TAP-deficient, HLA-A2.1+)

HLA-A2.1 molecules [2] = molecular target: T1, HLA-A2.1 molecules; assay type: binding
[3] = tested on: peptide-pulsed HHD-transfected RMAS cells; assay type: in vivo, HHD mice; details: with helper peptide; for Responder/tested mice: 50 μg CD8 + 140 μg HBV core T13L in IFA
[4] = tested on: peptide-pulsed HHD-transfected RMAS cells; assay type: in vivo, HHD mice; details: for classification as immunogen: by number of responder mice and strength of responses, peptide in IFA; for Responder/tested mice: 100 μg peptide s.c. in IFA
[5] = tested on: HHD-transfected RMA-S target cells loaded with relevant peptide; experiment: CTL response of HHD mice co-immunized in IFA with tumor peptide and HBVc.128 helper peptide; assay type: in vivo; details: for R/T (responder versus tested mice): 50 μg CD8 peptide + 140 μg HBVc.128 helper in IFA; for CTL response with helper peptide (in words): co-injected with HBVc.128 helper, compared with peptide alone
[6] = tested on: HHD-transfected RMA-S cells loaded with relevant peptide; experiment: CTL response of HHD mice injected s.c. with tumor epitopic peptide in IFA (51Cr-release assay); assay type: in vivo; details: for hierarchy of CTL inducers: peptide alone in IFA, by number of responding mice and level of specific lysis; for R/T (responder versus tested mice): peptide s.c. in IFA, no helper, responder = at least 10% specific lysis
[7] = tested on: HHD-transfected RMAS cells loaded with relevant peptide; experiment: CTL response of HHD mice immunized with recombinant Ty-VLP; assay type: in vivo; details: for lysis in % (highest specific lysis): recombinant Ty-VLP carrying the epitope, individual mice 1-6; for CTL responses (in words): recombinant Ty-VLP, all animals tested
[8] = tested on: HHD-transfected RMA-S cells loaded with relevant peptide; experiment: CTL response of A2A2Kb mice injected s.c. with tumor epitopic peptide in IFA (51Cr-release assay); assay type: in vivo; details: responder = at least 10% specific lysis
[9] = tested on: HHD-transfected RMAS cells loaded with relevant peptide; experiment: CTL response of HHD mice immunized with lipopeptides; assay type: in vivo; details: lipopeptide of the epitope; individual mice 1-6
[10] = tested on: HHD-transfected RMAS cells loaded with relevant peptide; experiment: CTL response of HHD mice immunized with peptide-loaded dendritic cells; assay type: in vivo; details: for lysis in % (highest specific lysis): individual mice 1-6, usually 60/1 E/T; for lysis in % after a second in vitro restimulation: second restimulation with 10% TCGF, individual mice 1-6
[11] = tested on: HHD-transfected RMAS cells loaded with relevant peptide; experiment: CTL response of HHD mice immunized with monoepitopic pCMV-B10 DNA; assay type: in vivo; details: for lysis in % (highest specific lysis): pCMV-B10 DNA encoding the epitope, individual mice 1-6; for CTL responses (in words): recombinant pCMV-B10-DNA, all animals tested
[12] = tested on: HHD-transfected RMA-S cells loaded with variant peptides; experiment: Cross-recognition of the main HIV 1 natural variants by induced CTL; assay type: in vivo, HHD mice; details: CTL induced by the immunizing peptide; FIG. 4
Procedure: Therefore, we tested, in the four latter cases, whether the elicited CTL responses by the selected wild-type or tyrosine substituted immunizing peptides could cross-recognize natural variants of a significant representation among HIV 1 isolates.
Cytolytic activity was evaluated against peptide-loaded HHD-transfected RMA-S cells using Inf.m.G9L peptide-loaded cells as a negative control.

[13] = tested on: peptide-loaded HHD-transfected RMA-S cells and HHD-transfected HeLa cells expressing the polyepitope; experiment: Melanoma polyepitopic pCMV-B10 DNA immunization of HHD mice, CTL assay; assay type: in vivo; details: pCMV-B10 DNA with 10 melanoma epitopes, FIG. 1C and D
[14] = wild-type HIV 1 peptides, reference I9V, T2 cells

Sequence	DC (half-life of stabilized peptide-HLA-A2.1 complexes, DC 50) (HLA-A2.1 molecules [1]) [h]	RA (relative affinity) (HLA-A2.1 molecules [2]; [14])	Responder/tested mice [3]	classification as immunogen [4]	Responder/tested mice ([4]; without helper peptide)	R/T (responder versus tested mice) [5]	hierarchy of CTL inducers [6]	R/T (responder versus tested mice) [6]	lysis in % (highest specific lysis) [7]	R/T (responder versus tested mice) [8]	lysis in % (highest specific lysis) [9]	lysis in % (highest specific lysis) [10]	lysis in % after a second in vitro restimulation [10]	lysis in % (highest specific lysis) [11]	other results
LLDTGADDTV [L10V]	< 2	10	0/6	intermediate	1/6	–	–	–	–	–	–	–	–	–	Maximum specific lysis (%) ([4]; without helper peptide, each responder mouse): 48%
YMNGTMSOV [Tyrosinase.368-N]	–	–	–	–	–	5/12	intermediate	4/15	0% and 61% and 58% and 39% and 29% and 17%	0/6	51% and 20% and 0% and 5% and 11% and 12%	0% (4×) and 8% and 15%	(3) %; also recorded: (17) %; also recorded: (30) %; also recorded: (80) %; also recorded: (61) %; also recorded: (1) %	6% and 12% and 16% and 13% and 11% and 38%	RA (relative affinity) (HLA-A2.1 molecules [2]): 2.2
KLTPLCVSL [K9L, HIV 1 ENV gp120 (120-128) CD8 epitopic peptide]	> 6	1.35	4/6	intermediate	3/6	–	–	–	–	–	–	–	–	–	cross-recognition of natural HIV 1 variants (in words) [12]: lack of cross-recognition
VLPDVFIRC [NA17-A.nt38, NA17-A nt38-64 epitopic peptide]	–	–	–	–	–	5/6	intermediate	4/7	55% and 39% and 50% and 60% and 59% and 61%	0/6	0% (2×) and 12% and 68% and 65% and 47%	0% (2×) and 3% (2×) and 5% and 6%	(6) %; also recorded: (5) %; also recorded: (24) %; also recorded: (9) %; also recorded: (7) %; also recorded: (2) %	35% and 43% and 47% and 44% and 40% and 54%	CTL response with helper peptide (in words) [5]: stronger responses in a larger proportion of mice; CTL responses (in words) [7]: strong CTL responses; CTL response against the epitope after melanoma polyepitope DNA immunization (in words) [13]: Strong responses; RA (relative affinity) (HLA-A2.1 molecules [2]): 1.52; CTL responses (in words) [11]: strong CTL responses
ALVEICTEM [A9M, HIV 1 POL (188-196) CD8 epitopic peptide]	–	–	1/6	intermediate	3/6	–	–	–	–	–	–	–	–	–	Maximal specific lysis (%) ([3]; each responder mouse): 31%; cross-recognition of natural HIV 1 variants (in words) [12]: cross-lysed significantly all main natural variants
YLSGANLNL [CEA.571, CEA 571-579 epitopic peptide]	–	–	–	–	–	3/6	strong	6/6	56% and 59% and 51% and 58% and 46% and 62%	0/6	0% (2×) and 8% (2×) and 34% and 3%	4% (2×) and 1% (2×) and 0% and 2%	(1) %; also recorded: (5) %; also recorded: (2) %; also recorded: (0) %; also recorded: (22) %	19% and 66% and 40% and 65% and 62% and 55%	CTL response with helper peptide (in words) [5]: less immunogenic; CTL responses (in words) [7]: strong CTL responses; CTL responses (in words) [11]: strong CTL responses
VLDVGDAYFSV [V11V]	2	4.5	2/6	intermediate	3/6	–	–	–	–	–	–	–	–	–	–
YLEPGPVTA [gp100.280]	–	–	–	–	–	2/8	weak	3/16	8% (2×) and 3% and 1% and 4% and 18%	0/6	0% (2×) and 8% (2×) and 40% and 21%	0%	(1) %; also recorded: (0) %	0% (2×) and 8% and 36% and 21% and 9%	CTL response against the epitope after melanoma polyepitope DNA immunization (in words) [13]: did not elicit CTL responses; also recorded: No specific lysis
EMMTACQGV [E9V]	< 2	–	0/6	inefficient	0/6	–	–	–	–	–	–	–	–	–	–
